These results are taken from ChEMBL document CHEMBL1697692, “Developing structure-activity relationships for the prediction of hepatotoxicity” (Chem Res Toxicol, 2010).

The structures appear in SMILES notation. Numbered stars: 1 amine (or outer) side, 2 acyl side, 3 side chain; on linkers, the order of the positions; unused ones are H or OH. Bridge positions count the residues as written; N and C are the ends. Square brackets hold non-standard residues; d marks the D form. Peptide text beside a SMILES is read from it. I, II: the chains in the order shown. Actinocin(9to1) = Cc1c2oc3c(C)ccc(C(=O)[*:1])c3nc-2c(C(=O)[*:2])c(N)c1=O; NMeV = CN[C@H](C(=O)O)C(C)C; Sar = CNCC(=O)O

For the data set, the system named is Hepatotoxicity. As to the kind of experiment: Literature-mined public compounds from Greene et al multi-species hepatotoxicity modelling dataset.
As for `Nc1nc(Cl)nc2c1ncn2[C@H]1C[C@H](O)[C@@H](CO)O1` [CLADRIBINE], the Hepatotoxicity result is recorded as “NE: No evidence of hepatotoxicity in any species”.
Take `CC[C@H]1OC(=O)[C@H](C)[C@@H](O[C@H]2C[C@@](C)(OC)[C@@H](O)[C@H](C)O2)[C@H](C)[C@@H](O[C@@H]2O[C@H](C)C[C@H](N(C)C)[C@H]2O)[C@](C)(OC)C[C@@H](C)C(=O)[C@H](C)[C@@H](O)[C@]1(C)O` [CLARITHROMYCIN]: the Hepatotoxicity entry was “HH: Evidence of human hepatotoxicity”.
Then `CN1CCC[C@@H]1CCO[C@](C)(c1ccccc1)c1ccc(Cl)cc1.O=C(O)/C=C/C(=O)O` [CLEMASTINE FUMARATE], with “NE: No evidence of hepatotoxicity in any species”; and `NC1CCN(c2c(F)cc3c(=O)c(C(=O)O)cn(C4CC4)c3c2Cl)C1` (configuration not stated) [CLINAFLOXACIN], with “WE: Weak evidence (<10 case reports) of human hepatotoxicity”; and `CCC[C@@H]1C[C@@H](C(=O)N[C@@H]([C@H]2O[C@H](SC)[C@H](O)[C@@H](O)[C@H]2O)[C@H](C)Cl)N(C)C1.Cl` [CLINDAMYCIN HYDROCHLORIDE], with “HH: Evidence of human hepatotoxicity”.
Take `CCOC(=O)C(C)(C)Oc1ccc(Cl)cc1` [CLOFIBRATE]: the Hepatotoxicity entry was “HH: Evidence of human hepatotoxicity”.
Take `CN(C)CCCN1c2ccccc2CCc2ccc(Cl)cc21` [CLOMIPRAMINE]: the Hepatotoxicity entry is recorded as “HH: Evidence of human hepatotoxicity”.
Then `Cl.Clc1cccc(Cl)c1NC1=NCCN1` [CLONIDINE HYDROCHLORIDE], with “HH: Evidence of human hepatotoxicity”; and `Clc1ccccc1C(c1ccccc1)(c1ccccc1)n1ccnc1` [CLOTRIMAZOLE], with “WE: Weak evidence (<10 case reports) of human hepatotoxicity”; and `Cc1onc(-c2ccccc2Cl)c1C(=O)N[C@@H]1C(=O)N2[C@@H]1SC(C)(C)[C@@H]2C(=O)[O-].O.[Na+]` [CLOXACILLIN SODIUM], with “HH: Evidence of human hepatotoxicity”.
The same measure for `CN1CCN(C2=Nc3cc(Cl)ccc3Nc3ccccc32)CC1` [CLOZAPINE]: “HH: Evidence of human hepatotoxicity”; for `COc1cc2c(c(OC)c1OC)-c1ccc(OC)c(=O)cc1[C@@H](NC(C)=O)CC2` [COLCHICINE]: “WE: Weak evidence (<10 case reports) of human hepatotoxicity”; for `O=C(O)c1cc(=O)c2c(OCC(O)COc3cccc4oc(C(=O)O)cc(=O)c34)cccc2o1` [CROMOLYN]: “NE: No evidence of hepatotoxicity in any species”.
Regarding `CN1CCN(C(c2ccccc2)c2ccccc2)CC1` [CYCLIZINE], the Hepatotoxicity entry is “HH: Evidence of human hepatotoxicity”.
As for `O=P1(N(CCCl)CCCl)NCCCO1` (configuration not stated) [CYCLOPHOSPHAMIDE ANHYDROUS], the Hepatotoxicity result was “HH: Evidence of human hepatotoxicity”.
With `CN1CCC(=C2c3ccccc3C=Cc3ccccc32)CC1.Cl` [CYPROHEPTADINE HYDROCHLORIDE], the Hepatotoxicity entry was “HH: Evidence of human hepatotoxicity”.
For the compound `CC(=O)O[C@]1(C(C)=O)CC[C@H]2[C@@H]3C=C(Cl)C4=CC(=O)[C@@H]5C[C@@H]5[C@]4(C)[C@H]3CC[C@@]21C` [CYPROTERONE ACETATE], the Hepatotoxicity result is on record as “AH: Evidence for animal hepatotoxicity but not tested in humans”.
As for `C=C(C)[C@H]1CC=C(C)CC1` [D-LIMONENE], the Hepatotoxicity result was “AH: Evidence for animal hepatotoxicity but not tested in humans”.
For the compound `CN(C)/N=N/c1[nH]cnc1C(N)=O` [DACARBAZINE], the Hepatotoxicity entry was “HH: Evidence of human hepatotoxicity”.
Turning to `Cc1c2oc3c(C)ccc(C(=O)N[C@@H]4C(=O)N[C@H](C(C)C)C(=O)N5CCC[C@H]5C(=O)N(C)CC(=O)N(C)[C@@H](C(C)C)C(=O)O[C@@H]4C)c3nc-2c(C(=O)N[C@@H]2C(=O)N[C@H](C(C)C)C(=O)N3CCC[C@H]3C(=O)N(C)CC(=O)N(C)[C@@H](C(C)C)C(=O)O[C@@H]2C)c(N)c1=O` [DACTINOMYCIN] (I: T[dV]P[Sar][NMeV] / II: T[dV]P[Sar][NMeV]; ester I:1-I:C, II:1-II:C; linker I:N-II:N via Actinocin(9to1)), the Hepatotoxicity result is given as “HH: Evidence of human hepatotoxicity”.
Take `C#C[C@]1(O)CC[C@H]2[C@@H]3CCC4=Cc5oncc5C[C@]4(C)[C@H]3CC[C@@]21C` [DANAZOL]: the Hepatotoxicity result was “HH: Evidence of human hepatotoxicity”.
As for `O=C1CN(/N=C/c2ccc(-c3ccc([N+](=O)[O-])cc3)o2)C(=O)[N-]1.[Na+]` [DANTROLENE SODIUM], the Hepatotoxicity entry is given as “HH: Evidence of human hepatotoxicity”.
Then `Nc1ccc(S(=O)(=O)c2ccc(N)cc2)cc1` [DAPSONE], with “HH: Evidence of human hepatotoxicity”; and `CC(=O)N(O)CCCCCNC(=O)CCC(=O)N(O)CCCCCNC(=O)CCC(=O)N(O)CCCCCN.CS(=O)(=O)O` [DEFEROXAMINE MESYLATE], with “HH: Evidence of human hepatotoxicity”.
In the case of `CN(CCCCCCCCCCN(C)C(=O)Oc1cccc([N+](C)(C)C)c1)C(=O)Oc1cccc([N+](C)(C)C)c1.[Br-].[Br-]` [DEMECARIUM BROMIDE], the Hepatotoxicity result is listed as “HH: Evidence of human hepatotoxicity”.
Turning to `CN(C)[C@@H]1C(O)=C(C(N)=O)C(=O)[C@@]2(O)C(O)=C3C(=O)c4c(O)ccc(Cl)c4[C@@H](O)[C@H]3C[C@@H]12.Cl` [DEMECLOCYCLINE HYDROCHLORIDE], the Hepatotoxicity result is “HH: Evidence of human hepatotoxicity”.
With `CNCCCN1c2ccccc2CCc2ccccc21` [DESIPRAMINE], the Hepatotoxicity entry is “WE: Weak evidence (<10 case reports) of human hepatotoxicity”.
`C[C@@H]1C[C@H]2[C@@H]3CCC4=CC(=O)C=C[C@]4(C)[C@@]3(F)[C@@H](O)C[C@]2(C)[C@@]1(O)C(=O)CO` [DEXAMETHASONE]: the Hepatotoxicity entry is reported as “NE: No evidence of hepatotoxicity in any species”.
The same measure for `C[C@H](N)Cc1ccccc1.C[C@H](N)Cc1ccccc1.O=S(=O)(O)O` [DEXTROAMPHETAMINE SULFATE]: “HH: Evidence of human hepatotoxicity”; for `Br.COc1ccc2c(c1)[C@]13CCCC[C@@H]1[C@H](C2)N(C)CC3.O` [DEXTROMETHORPHAN HYDROBROMIDE]: “NE: No evidence of hepatotoxicity in any species”.
Turning to `Cc1onc(-c2c(Cl)cccc2Cl)c1C(=O)N[C@@H]1C(=O)N2[C@@H]1SC(C)(C)[C@@H]2C(=O)[O-].O.[Na+]` [DICLOXACILLIN SODIUM], the Hepatotoxicity entry is listed as “HH: Evidence of human hepatotoxicity”.
Regarding `O=c1[nH]cnc2c1ncn2[C@H]1CC[C@@H](CO)O1` [DIDANOSINE], the Hepatotoxicity entry is recorded as “HH: Evidence of human hepatotoxicity”.
As to `CCN(CC)C(=O)N1CCN(C)CC1` [DIETHYLCARBAMAZINE], the Hepatotoxicity entry was “HH: Evidence of human hepatotoxicity”.
Take `O=C(O)c1cc(-c2ccc(F)cc2F)ccc1O` [DIFLUNISAL]: the Hepatotoxicity result is given as “HH: Evidence of human hepatotoxicity”.
For `C[C@H]1O[C@@H](O[C@H]2[C@@H](O)C[C@H](O[C@H]3[C@@H](O)C[C@H](O[C@H]4CC[C@@]5(C)[C@H](CC[C@@H]6[C@@H]5C[C@@H](O)[C@]5(C)[C@@H](C7=CC(=O)OC7)CC[C@]65O)C4)O[C@@H]3C)O[C@@H]2C)C[C@H](O)[C@@H]1O` [DIGOXIN], the Hepatotoxicity result is reported as “NE: No evidence of hepatotoxicity in any species”.
Regarding `C[C@H](CCc1ccccc1)NC[C@H](O)c1ccc(O)c(C(N)=O)c1` [DILEVALOL], the Hepatotoxicity entry was “HH: Evidence of human hepatotoxicity”.
As for `OCC(S)CS` (configuration not stated) [DIMERCAPROL], the Hepatotoxicity entry was “HH: Evidence of human hepatotoxicity”.
Regarding `O=C1CCC(=O)N1c1cc(Cl)cc(Cl)c1` [DIMETHACHLON], the Hepatotoxicity result is recorded as “AH: Evidence for animal hepatotoxicity but not tested in humans”.
As for `CN(C)C=O` [DIMETHYLFORMAMIDE], the Hepatotoxicity result was “AH: Evidence for animal hepatotoxicity but not tested in humans”.
As to `CCOC(=O)C1(c2ccccc2)CCN(CCC(C#N)(c2ccccc2)c2ccccc2)CC1.Cl` [DIPHENOXYLATE HYDROCHLORIDE], the Hepatotoxicity result is on record as “NE: No evidence of hepatotoxicity in any species”.
With `CC(C)N(CCC(C(N)=O)(c1ccccc1)c1ccccn1)C(C)C.O=P(O)(O)O` (configuration not stated) [DISOPYRAMIDE PHOSPHATE], the Hepatotoxicity result is “HH: Evidence of human hepatotoxicity”.
Turning to `CC(CCc1ccc(O)cc1)NCCc1ccc(O)c(O)c1.Cl` (configuration not stated) [DOBUTAMINE HYDROCHLORIDE], the Hepatotoxicity entry is listed as “NE: No evidence of hepatotoxicity in any species”.
With `COc1cc2c(cc1OC)C(=O)C(CC1CCN(Cc3ccccc3)CC1)C2` (configuration not stated) [DONEPEZIL], the Hepatotoxicity entry is reported as “WE: Weak evidence (<10 case reports) of human hepatotoxicity”.
Then `NCCc1ccc(O)c(O)c1` [DOPAMINE], with “NE: No evidence of hepatotoxicity in any species”; and `COc1cccc2c1C(=O)c1c(O)c3c(c(O)c1C2=O)C[C@@](O)(C(=O)CO)C[C@@H]3O[C@H]1C[C@H](N)[C@H](O)[C@H](C)O1.Cl` [DOXORUBICIN HYDROCHLORIDE], with “HH: Evidence of human hepatotoxicity”.
Regarding `COc1cccc2c1C(=O)c1c(O)c3c(c(O)c1C2=O)C[C@@](O)(C(=O)CO)C[C@@H]3O[C@H]1C[C@H](N)[C@H](O)[C@H](C)O1` [DOXORUBICIN], the Hepatotoxicity result was “NE: No evidence of hepatotoxicity in any species”.
`Clc1ccc(COC(Cn2ccnc2)c2ccc(Cl)cc2Cl)cc1.O=[N+]([O-])O` (configuration not stated) [ECONAZOLE NITRATE]: the Hepatotoxicity result is on record as “NE: No evidence of hepatotoxicity in any species”.
Take `CC[N+](C)(C)c1cccc(O)c1.[Cl-]` [EDROPHONIUM CHLORIDE]: the Hepatotoxicity result is recorded as “NE: No evidence of hepatotoxicity in any species”.
For `CCN(CC)CCOc1ccc(/C(=C(/Cl)c2ccccc2)c2ccccc2)cc1.O=C(O)CC(O)(CC(=O)O)C(=O)O` [ENCLOMIPHENE CITRATE], the Hepatotoxicity entry was “HH: Evidence of human hepatotoxicity”.
In the case of `CCN(CC)C(=O)/C(C#N)=C/c1cc(O)c(O)c([N+](=O)[O-])c1` [ENTACAPONE], the Hepatotoxicity entry was “WE: Weak evidence (<10 case reports) of human hepatotoxicity”.
As for `COc1cccc2c1C(=O)c1c(O)c3c(c(O)c1C2=O)C[C@@](O)(C(=O)CO)C[C@@H]3O[C@H]1C[C@H](N)[C@@H](O)[C@H](C)O1` [EPIRUBICIN], the Hepatotoxicity result is on record as “NE: No evidence of hepatotoxicity in any species”.
`CCCCc1ncc(/C=C(\Cc2cccs2)C(=O)O)n1Cc1ccc(C(=O)O)cc1` [EPROSARTAN]: the Hepatotoxicity entry is given as “WE: Weak evidence (<10 case reports) of human hepatotoxicity”.
